In article PMC10899177, “Bicarbonate signalling via G protein-coupled receptor regulates ischaemia-reperfusion injury” (Nature Communications, 2024):

Assays:
GPR30 [1] = target: T1, GPR30 (Mus musculus, UniProt Q8BMP4); test: inositol phosphate accumulation in MCF-mGPR30 cells; calcium responses lost in Gpr30-null mural cells; type: cell-based
T1 construct: gene Gper1; mGPR30 stably expressed in MCF-7 cells
T1 sequence (Q8BMP4 1-375): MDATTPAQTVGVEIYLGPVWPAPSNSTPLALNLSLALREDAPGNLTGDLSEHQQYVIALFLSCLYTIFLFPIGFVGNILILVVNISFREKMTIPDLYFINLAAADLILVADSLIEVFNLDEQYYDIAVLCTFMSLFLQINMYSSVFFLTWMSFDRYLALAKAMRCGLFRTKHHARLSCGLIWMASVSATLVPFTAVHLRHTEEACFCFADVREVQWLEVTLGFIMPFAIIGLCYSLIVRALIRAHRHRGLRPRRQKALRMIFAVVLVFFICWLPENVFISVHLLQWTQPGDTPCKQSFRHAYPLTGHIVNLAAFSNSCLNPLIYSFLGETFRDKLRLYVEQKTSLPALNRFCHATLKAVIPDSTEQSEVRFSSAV

GPR30 [2] = target: T2, GPR30 (Homo sapiens, UniProt Q99527); test: scintillation proximity assay with […]C-bicarbonate on membranes; the EC50 is from inositol phosphate accumulation in HEK293 cells; type: cell-based
T2 construct: gene GPER1; hGPR30-HA (C-terminal HA tag), plasma membrane fraction of HEK293 cells

GPR30 [3] = target: T3, GPR30 (Danio rerio, UniProt B3G515)
T3 construct: gene gper1

GPR30 [4] = target: T4, GPR30 (Rattus norvegicus, UniProt O08878)
T4 construct: gene Gper1
T4 sequence (O08878 whole entry): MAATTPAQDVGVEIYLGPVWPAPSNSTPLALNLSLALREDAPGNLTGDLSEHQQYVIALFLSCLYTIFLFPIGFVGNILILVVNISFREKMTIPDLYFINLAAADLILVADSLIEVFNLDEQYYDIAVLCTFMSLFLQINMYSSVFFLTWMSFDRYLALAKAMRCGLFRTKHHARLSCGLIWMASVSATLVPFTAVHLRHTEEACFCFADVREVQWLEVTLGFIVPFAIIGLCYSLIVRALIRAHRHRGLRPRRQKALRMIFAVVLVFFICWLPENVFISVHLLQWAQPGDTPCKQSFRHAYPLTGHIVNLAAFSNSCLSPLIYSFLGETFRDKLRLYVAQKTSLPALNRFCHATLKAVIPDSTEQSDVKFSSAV

T2 sequence (Q99527 whole entry): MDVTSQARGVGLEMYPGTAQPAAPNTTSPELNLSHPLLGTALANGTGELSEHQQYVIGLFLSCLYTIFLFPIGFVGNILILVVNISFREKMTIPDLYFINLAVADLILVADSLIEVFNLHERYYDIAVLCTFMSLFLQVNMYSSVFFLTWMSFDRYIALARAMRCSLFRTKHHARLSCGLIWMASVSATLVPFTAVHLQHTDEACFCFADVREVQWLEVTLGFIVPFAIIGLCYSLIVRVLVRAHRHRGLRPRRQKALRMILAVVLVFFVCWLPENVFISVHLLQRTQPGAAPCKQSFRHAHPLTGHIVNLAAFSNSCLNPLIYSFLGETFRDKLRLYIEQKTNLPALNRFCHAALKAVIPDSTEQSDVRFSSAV
T3 sequence (B3G515 whole entry): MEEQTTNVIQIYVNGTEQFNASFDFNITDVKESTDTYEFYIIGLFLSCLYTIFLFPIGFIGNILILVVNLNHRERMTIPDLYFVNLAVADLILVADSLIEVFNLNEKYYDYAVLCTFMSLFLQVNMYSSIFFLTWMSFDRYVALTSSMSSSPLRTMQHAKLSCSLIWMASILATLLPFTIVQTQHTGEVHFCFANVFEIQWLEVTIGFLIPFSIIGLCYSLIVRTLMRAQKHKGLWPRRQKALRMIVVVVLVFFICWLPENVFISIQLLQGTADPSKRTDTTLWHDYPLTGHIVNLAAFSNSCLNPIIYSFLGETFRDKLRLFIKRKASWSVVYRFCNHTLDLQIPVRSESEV

SMILES: O=C(O)O [bicarbonate]
- EC50 (GPR30 [1]): 12.2 mM
- EC50 (GPR30 [2]): 11.4 mM
- cell-based activation assay of expressed receptor (GPR30 [3]): Activation of GPR30 by bicarbonate ions was conserved among various species, including rats
- cell-based activation assay of expressed receptor (GPR30 [4]): Activation of GPR30 by bicarbonate ions was conserved among various species, including rats
